Measurements reported in EP1801112A1, “Bicyclic pyrimidines and bicyclic 3,4-dihydropyrimidines as inhibitors of cellular proliferation” (Warner-Lambert Company LLC, priority 1998, dated 1999).
Read-outs that look alike come from different tables or passages of the source.

Assays:
cdk4/D = cdk4/D (Homo sapiens, UniProt P11802); test: Cyclin-Dependent Kinase 4 (cdk4) Assay; format: biochemical
cdk2/cyclinE = cdk2/cyclinE (Homo sapiens, UniProt P24941); test: Cyclin-Dependent Kinase Assay cdk2/cyclinE; format: biochemical
cdk2/cyclinA = cdk2/cyclinA (Homo sapiens, UniProt P24941); test: Cyclin-Dependent Kinase Assay cdk2/cyclinA; format: biochemical
cdc2/cyclinB = cdc2/cyclinB (Homo sapiens, UniProt P06493); test: Cyclin-Dependent Kinase Assay cdc2/cyclinB; format: biochemical
[1] = target: T1, PDGF-β receptor tyrosine kinase (Mus musculus, UniProt P05622); test: PDGF Receptor Tyrosine Kinase Assay; format: biochemical; settings: glutamate-tyrosine co-polymer substrate, 50 µM ATP
T1 construct: amplify a fragment of DNA that codes for the intracellular tyrosine kinase domain; made in house; host or cells: SF9 insect cells (baculovirus); crude cell lysate used
From the text: PDGF and FGF Receptor Tyrosine Kinase Assays
Full-length cDNAs for the mouse PDGF-β and human FGF-1 (flg) receptor tyrosine kinases were obtained from J. Escobedo and prepared as described in J. Biol. Chem., 1991;262:1482-1487. PCR primers were designed to amplify a fragment of DNA that codes for the intracellular tyrosine kinase domain. The fragment was inserted into a baculovirus vector, cotransfected with AcMNPV DNA, and the recombinant virus isolated. SF9 insect cells were infected with the virus to overexpress the protein, and the cell lysate was used for the assay. Assays were performed in 96-well plates (100 µL/incubation/well), and conditions were optimized to measure the incorporation of ^32P from γ^32P-ATP into a glutamate-tyrosine co-polymer substrate. Briefly, to each well was added 82.5 µL of incubation buffer containing 25 mM Hepes (pH 7.0), 150 mM NaCl, 0.1% Triton X-100, 0.2 mM PMSF, 0.2 mM Na3VO4, 10 mM MnCl2, and 750 µg/mL of Poly (4:1) glutamate-tyrosine followed by […] of inhibitor and 5 µL of enzyme lysate (7.5 µg/µL FGF-TK or 6.0 µg/µL PDGF-TK) to initiate the reaction. Following a 10 minute incubation at 25°C, […] of γ^32P-ATP (0.4 µCi plus 50 µM ATP) was added to each well, and samples were incubated for an additional 10 minutes at 25°C. The reaction was terminated by the addition of 100 µL of 30% trichloroacetic acid (TCA) containing 20 mM sodium pyrophosphate and precipitation of material onto glass fiber mats (Wallac). Filters were washed three times with 15% TCA containing 100 mM sodium pyrophosphate, and the radioactivity retained on the filters counted in a Wallac 1250 Betaplate reader. Nonspecific activity was defined as radioactivity retained on the filters following incubation of samples with buffer alone (no enzyme). Specific enzymatic activity (enzyme plus buffer) was defined as total activity minus nonspecific activity. […]

[2] = target: T2, FGF-1 (flg) receptor tyrosine kinase (Homo sapiens, UniProt P11362); test: FGF Receptor Tyrosine Kinase Assay; format: biochemical; settings: glutamate-tyrosine co-polymer substrate, 50 µM ATP
T2 construct: amplify a fragment of DNA that codes for the intracellular tyrosine kinase domain; made in house; host or cells: SF9 insect cells (baculovirus); crude cell lysate used

c-Src = target: T3, c-Src (Homo sapiens, UniProt P12931); test: c-Src protein kinase assay; format: biochemical; settings: poly GluTyr substrate, 5 µM ATP
T3 construct: made in house; host or cells: baculovirus infected insect cells
Method: The assay was carried out as follows: c-Src kinase was purified from baculovirus infected insect cell lysates using an antipeptide monoclonal antibody directed against the N-terminal amino acids (amino acids 2-17) of c-Src. The antibody, covalently linked to 0.65 µm latex beads, was added to a suspension of insect cell lysis buffer comprised of 150 mM NaCl, 50 mM Tris pH 7.5, 1 mM DTT, 1% NP-40, 2 mM EGTA, 1 mM sodium vanadate, 1 mM PMSF, 1 µg/mL each of leupeptin, pepstatin, and aprotinin. Insect cell lysate containing c-Src protein was incubated with these beads for 3 to 4 hours at 4°C with rotation. At the end of the lysate incubation, the beads were rinsed three times in lysis buffer, resuspended in lysis buffer containing 10% glycerol, and frozen. These latex beads were thawed, rinsed three times in assay buffer (40 mM Tris, pH 7.5, […]) and suspended in the same buffer. In a Millipore 96-well plate with a 0.65 µm polyvinylidine membrane bottom were added the reaction components: 10 µL c-Src beads, 10 µL of 2.5 mg/mL poly GluTyr substrate, 5 µM ATP containing 0.2 µCi labeled ^32P-ATP, 5 µL DMSO containing inhibitors or as a solvent control, and buffer to make the final volume 125 µL. The reaction was started at room temperature by addition of the ATP and quenched 10 minutes later by the addition of 125 µL of 30% TCA, 0.1 M sodium pyrophosphate for 5 minutes on ice. […] The filters were then punched, counted in a liquid scintillation counter, and the data examined for inhibitory activity in comparison to a known inhibitor such as erbstatin. […]

[3] = system: human umbilical vein endothelial cells; test: Human Umbilical Vein Endothelial Cell (HUVEC) Proliferation Assay; format: cell-based; settings: 96 h, four days incubation, Sulphorhodamine B staining
Method: The compounds of Formula I are useful for treating cell proliferative disorders concerning angiogenesis and have been evaluated in a human umbilical vein endothelial cell in vitro assay. The assay described below is used to determine the anti-proliferative effects of the invention compounds on human umbilical vein endothelial cells, and the results are shown in Table 7.
Human Umbilical Vein Endothelial Cell (HUVEC) Proliferation Assay
Ninety-six well tissue culture plates are seeded with 100 µL of cells in all wells of rows A->G with row H remaining empty as a blank. HUVEC (Clonetics, San Diego, CA) are grown in endothelial growth medium (EGM media, Clonetics), containing 2% fetal bovine serum. The cell seed density for HUVEC cells is 20,000 per mL. C6 cells (ATCC Cat. No. CCL-107) are seeded at 6000 per mL in F10 medium (nutrient mixture Hemes) supplemented with 15% horse serum, 2.5% fetal bovine serum, and 6.0 mL 200 mM Glutamine per 600 mL medium. A90 cells (Suny, Buffalo, NY) are also seeded at 6000 per mL, but they are grown in RPMI 1640 (Roswell Park Memorial Institute) plus 10% fetal bovine serum. Unless noted otherwise, tissue culture media and components are from GIBCO. The cells are allowed to incubate at 37°C, 5% CO2, and 100% relative humidity for 16-24 hours.
Invention compounds are prepared by dissolving them in DMSO at a concentration of 5 mM, followed by dilution to 50 µM in EGM media. One hundred microliters of the compounds are applied to duplicate wells in column 1 of the previously prepared cell plates. Column 1 row H receives 100 µL of EGM media. The compounds in column 1 are diluted across the plates using serial twofold dilutions.
The plates are incubated as above for an additional four days before being stained with Sulphorhodamine B. Staining is performed as follows: The media is removed from the plates, and the cells are fixed using 10% trichloroacetic acid for 30 minutes at 4°C. Following fixation, the plates are washed five times with distilled water after which 100 µL of Sulphorhodamine B is added to each well. Sulphorhodamine B is dissolved in 1% acetic acid to a concentration of .075%. Following staining, excess stain is removed from the wells, and the plates are washed four times with 1% acetic acid. The plates are allowed to air dry before the bound dye is solubilized in 100 µL of 10 mM unbuffered TRIS base. Absorbance is measured on a 96 well plate reader at […] using a reference filter wavelength of 630 nm. […] Sulphorhodamine B and TRIS are from Sigma Chemical Company. Acetic acid and trichloroacetic acid are from Mallinckrodt AR.

[4] = 25 µM ATP, retinoblastoma substrate, read-out: IC50 (µM) cdk4/D
[5] = retinoblastoma substrate, read-out: IC50 (µM) cdk2/E
[6] = retinoblastoma substrate, read-out: IC50 (µM) cdk2/A
[7] = retinoblastoma substrate, read-out: IC50 (µM) cdkl/B

Chain of cdc2/cyclinB (P06493 whole entry): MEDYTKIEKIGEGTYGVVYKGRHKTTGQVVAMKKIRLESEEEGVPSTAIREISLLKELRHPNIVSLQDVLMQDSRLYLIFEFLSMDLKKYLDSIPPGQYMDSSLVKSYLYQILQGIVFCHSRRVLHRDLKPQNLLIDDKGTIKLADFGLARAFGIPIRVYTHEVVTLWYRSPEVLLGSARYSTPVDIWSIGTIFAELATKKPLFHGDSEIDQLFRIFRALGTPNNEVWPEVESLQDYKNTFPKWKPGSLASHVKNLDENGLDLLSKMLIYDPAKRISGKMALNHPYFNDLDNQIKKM
Chain of cdc2/cyclinB (P14635 whole entry, further chain): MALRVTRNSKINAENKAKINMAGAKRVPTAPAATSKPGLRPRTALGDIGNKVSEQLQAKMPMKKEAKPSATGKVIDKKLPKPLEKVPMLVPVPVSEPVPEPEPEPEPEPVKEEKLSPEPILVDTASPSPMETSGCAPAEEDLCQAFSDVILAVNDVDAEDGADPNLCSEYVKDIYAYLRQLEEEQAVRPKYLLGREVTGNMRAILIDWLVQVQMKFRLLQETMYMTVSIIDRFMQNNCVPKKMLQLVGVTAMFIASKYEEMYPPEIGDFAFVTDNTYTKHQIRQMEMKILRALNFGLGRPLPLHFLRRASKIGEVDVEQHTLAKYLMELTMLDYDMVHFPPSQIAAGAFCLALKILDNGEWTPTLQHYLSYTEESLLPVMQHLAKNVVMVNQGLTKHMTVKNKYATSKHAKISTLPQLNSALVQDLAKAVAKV
T1 sequence (P05622 599-961 limits assumed): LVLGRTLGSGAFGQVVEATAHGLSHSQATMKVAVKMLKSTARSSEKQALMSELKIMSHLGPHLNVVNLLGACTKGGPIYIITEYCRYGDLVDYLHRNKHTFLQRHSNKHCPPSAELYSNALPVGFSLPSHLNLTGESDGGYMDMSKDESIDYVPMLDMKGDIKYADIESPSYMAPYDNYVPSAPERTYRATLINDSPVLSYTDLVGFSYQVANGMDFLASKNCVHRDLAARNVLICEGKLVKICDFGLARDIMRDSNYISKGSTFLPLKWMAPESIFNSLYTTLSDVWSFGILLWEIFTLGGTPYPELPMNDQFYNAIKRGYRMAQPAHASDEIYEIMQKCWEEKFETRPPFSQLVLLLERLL
Chain of cdk4/D (P11802 whole entry): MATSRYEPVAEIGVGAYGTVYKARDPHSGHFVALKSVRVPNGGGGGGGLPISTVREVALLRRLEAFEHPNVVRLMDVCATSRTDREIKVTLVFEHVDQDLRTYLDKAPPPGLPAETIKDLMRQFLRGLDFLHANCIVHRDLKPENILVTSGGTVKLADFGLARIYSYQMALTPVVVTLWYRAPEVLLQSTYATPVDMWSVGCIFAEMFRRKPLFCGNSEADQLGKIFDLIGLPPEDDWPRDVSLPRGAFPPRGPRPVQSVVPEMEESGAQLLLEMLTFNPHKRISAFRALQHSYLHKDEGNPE
Chain of cdk4/D (P24385 whole entry, further chain): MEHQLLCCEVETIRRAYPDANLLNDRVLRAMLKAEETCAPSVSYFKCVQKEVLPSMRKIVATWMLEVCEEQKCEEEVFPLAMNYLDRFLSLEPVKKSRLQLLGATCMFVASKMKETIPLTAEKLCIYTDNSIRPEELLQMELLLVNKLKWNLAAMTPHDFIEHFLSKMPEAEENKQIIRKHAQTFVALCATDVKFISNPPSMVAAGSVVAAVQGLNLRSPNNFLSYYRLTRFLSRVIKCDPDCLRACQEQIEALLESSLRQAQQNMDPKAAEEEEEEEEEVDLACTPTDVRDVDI
T3 sequence (P12931 whole entry): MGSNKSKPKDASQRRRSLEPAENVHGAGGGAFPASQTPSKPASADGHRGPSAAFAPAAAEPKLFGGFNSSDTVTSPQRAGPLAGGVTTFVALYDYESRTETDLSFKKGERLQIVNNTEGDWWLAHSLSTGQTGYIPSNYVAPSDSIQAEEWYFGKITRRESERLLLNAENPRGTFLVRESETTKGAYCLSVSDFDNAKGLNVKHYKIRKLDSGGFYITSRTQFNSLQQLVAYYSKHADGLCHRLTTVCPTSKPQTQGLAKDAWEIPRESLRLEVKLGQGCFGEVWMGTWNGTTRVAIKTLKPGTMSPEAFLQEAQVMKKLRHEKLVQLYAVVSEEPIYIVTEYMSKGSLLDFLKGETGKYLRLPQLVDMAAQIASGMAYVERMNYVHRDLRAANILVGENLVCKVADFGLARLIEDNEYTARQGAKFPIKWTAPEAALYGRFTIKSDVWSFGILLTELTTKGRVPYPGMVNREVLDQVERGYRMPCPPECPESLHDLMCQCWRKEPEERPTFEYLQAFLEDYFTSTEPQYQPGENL
T2 sequence (P11362 478-767 limits assumed): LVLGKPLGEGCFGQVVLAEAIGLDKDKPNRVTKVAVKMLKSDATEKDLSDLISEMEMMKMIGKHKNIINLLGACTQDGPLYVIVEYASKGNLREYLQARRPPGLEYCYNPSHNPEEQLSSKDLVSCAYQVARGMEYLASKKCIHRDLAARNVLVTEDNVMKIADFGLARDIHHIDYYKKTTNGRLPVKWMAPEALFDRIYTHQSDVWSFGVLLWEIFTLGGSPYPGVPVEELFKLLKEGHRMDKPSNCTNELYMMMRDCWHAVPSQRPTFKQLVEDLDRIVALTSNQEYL

Row | SMILES | IC50 (cdk4/D; [4]) [µM] | IC50 (cdk2/cyclinE; [5]) [µM] | IC50 (cdk2/cyclinA; [6]) [µM] | IC50 (cdc2/cyclinB; [7]) [µM] | IC50 [1] [µM] | IC50 [2] [µM] | IC50 (c-Src) [nM] | IC50 (cdk4/D) [µM] | IC50 (cdk2/cyclinE) [µM] | IC50 (cdk2/cyclinA) [µM] | IC50 (cdc2/cyclinB) [µM] | IC50 [3] [nM]
1 | CN1CCN(c2ccc(Nc3ncc4c(n3)N(C3CCCC3)C(=O)NC4)cc2)CC1 [Example 11, 1-Cyclopentyl-7-[4-(4-methylpiperazin-1-yl)phenylamino]-3,4-dihydropyrimido[4,5-d]pyrimidin-2(1H)-one] | 0.039 | 2.12 | 0.76 | 11.6 | 0.175 | 0.023 | 710 |  |  |  |  | 
2 | CN1CCN(c2ccc(Nc3ncc4cnc(=O)n(C5CCCC5)c4n3)cc2)CC1 [Example 32, 1-Cyclopentyl-7-[4-(4-methylpiperazin-1-yl)phenylamino]pyrimido-[4,5-d]pyrimidin-2(1H)-one] | 0.05 | 1.38 | 0.83 | 7.51 | 1.63 | 0.37 | 3950 |  |  |  |  | 
3 | O=c1ncc2cnc(Nc3ccc(N4CCCC(O)C4)cc3)nc2n1C1CCCC1 (stereo not drawn) [Example 35, 1-Cyclopentyl-7-[4-(3-hydroxypiperidin-1-yl)phenylamino]pyrimido[4,5-d]-pyrimidin-2(1H)-one] |  |  |  |  | 2.8 | 3.49 | 4650 | 0.082 | 1.05 | 0.99 | 8.54 | 
4 | O=c1ncc2cnc(Nc3ccc(N4CCC(CCN5CCOCC5)CC4)cc3)nc2n1C1CCCC1 [Example 39] |  |  |  |  | 3.76 |  | 3230 | 0.3 | 1.85 | 1.44 | 24.6 | 
5 | CC(C)n1c(=O)ncc2cnc(Nc3ccc(N4CCC(N(C)C)CC4)cc3)nc21 [Example 41, 7-{4-[4-(Dimethylamino)piperidin-1-yl]phenylamino}-1-isopropyl-pyrimido[4,5-d]pyrimidin-2(1H)-one] |  |  |  |  | > 50 | 11.7 | 3060 |  | > 40 | 14.8 | > 40 | 
6 | CCN(CC)CCCCNc1ncc2c(n1)N(CC)C(=O)N(c1cc(OC)cc(OC)c1)C2 [Example 53, 7-(4-Diethylamino-butylamino)-3-(3,5-dimethoxy-phenyl)-1-ethyl-3,4-dihydro-pyrimido[4,5-d]pyrimidin-2(1H)-one] |  |  |  |  | 5 | 0.06 |  |  |  |  |  | 192
